In US11261186B2, “Biaryl derivative as GPR120 agonist” (LG CHEM, LTD., priority 2014, dated 2022) one finds EC50 data, which are given here for 36 compounds.

For the assay, the target named is T1, hGPR120 (Homo sapiens, UniProt Q5NUL3).
T1 construct: expressed in transfected cells; host or cells: CHO-K1
T1 sequence (Q5NUL3 1-361): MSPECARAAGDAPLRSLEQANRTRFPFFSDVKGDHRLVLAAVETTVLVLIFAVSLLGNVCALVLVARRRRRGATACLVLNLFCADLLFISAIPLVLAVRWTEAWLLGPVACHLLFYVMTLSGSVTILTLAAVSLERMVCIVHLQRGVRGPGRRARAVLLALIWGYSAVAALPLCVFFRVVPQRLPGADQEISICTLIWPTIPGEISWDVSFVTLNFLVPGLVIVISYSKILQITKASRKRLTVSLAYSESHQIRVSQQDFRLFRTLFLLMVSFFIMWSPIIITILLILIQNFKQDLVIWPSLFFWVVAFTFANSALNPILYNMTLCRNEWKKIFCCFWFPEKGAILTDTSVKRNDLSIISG
As to the kind of experiment: Measurement of Activity of GPR120 Agonist (Cell-Based Assay), Calcium 5 dye fluorescence. Conditions: CHO-K1 cells expressing Ga16 and hGPR120. The essentials: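 Fluorescence increase (Ex 485 nm, Em 525 nm) after agonist addition was calculated as relative percent of the 1% DMSO-only signal. Cells were CHO-K1 stably carrying Gα16 plus human GPR120, dye-loaded for 1 h after overnight (18 h) culture.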

Take `CCOc1cc(C)nc(-c2cc(F)c(N3CCC(CC(=O)O)CC3)c(F)c2)n1` [Example 349, 2-[1-[4-(4-ethoxy-6-methyl-pyrimidin-2-yl)-2,6-difluoro-phenyl]-4-piperidyl]acetic acid]: the concentration for a half-maximal effect (EC50) is under 200 nM.

For the compound `Cc1cc(OC(C)C)nc(-c2cc(F)c(N3CCC(CC(=O)O)CC3)c(F)c2)n1` [Example 350, 2-[1-[2,6-difluoro-4-(4-isopropoxy-6-methyl-pyrimidin-2-yl)phenyl]-4-piperidyl]acetic acid], the EC50 was in the range of 200 to 2000 nM.

Consider `CCCOc1cc(C)nc(-c2cc(F)c(N3CCC(CC(=O)O)CC3)c(F)c2)n1` [Example 351, 2-[1-[2,6-difluoro-4-(4-methyl-6-propoxy-pyrimidin-2-yl)phenyl]-4-piperidyl]acetic acid], for which the EC50 was under 200 nM.

For `Cc1cc(OCC(C)C)nc(-c2cc(F)c(N3CCC(CC(=O)O)CC3)c(F)c2)n1` [Example 352, 2-[1-[2,6-difluoro-4-(4-isobutoxy-6-methyl-pyrimidin-2-yl)phenyl]-4-piperidyl]acetic acid], the concentration for a half-maximal effect (EC50) lay in the range of 200 to 2000 nM.

For `O=C(O)CC1CCN(c2c(F)cc(-c3cncc(N4CCCC4)n3)cc2F)CC1` [Example 353, 2-[1-[2,6-difluoro-4-(6-pyrrolidin-1-ylpyrazin-2-yl)phenyl]-4-piperidyl]acetic acid], the EC50 is 2000 to 20000 nM.

Turning to `CC(C)Nc1cncc(-c2cc(F)c(N3CCC(CC(=O)O)CC3)c(F)c2)n1` [Example 354, 2-[1-[2,6-difluoro-4-[6-(isopropylamino)pyrazin-2-yl]phenyl]-4-piperidyl]acetic acid], the EC50 lay in the range of 200 to 2000 nM.

In the case of `CCN(CC)c1cncc(-c2cc(F)c(N3CCC(CC(=O)O)CC3)c(F)c2)n1` [Example 355, 2-[1-[4-[6-(diethylamino)pyrazin-2-yl]-2,6-difluoro-phenyl]-4-piperidyl]acetic acid], the 50% effective concentration (EC50) was 2000 to 20000 nM.

For the compound `CC(C)CNc1cncc(-c2cc(F)c(N3CCC(CC(=O)O)CC3)c(F)c2)n1` [Example 356, 2-[1-[2,6-difluoro-4-[6-(isobutylamino)pyrazin-2-yl]phenyl]-4-piperidyl]acetic acid], the EC50 was in the range of 200 to 2000 nM.

In the case of `O=C(O)CC1CCN(c2c(F)cc(-c3cncc(NC4CCCC4)n3)cc2F)CC1` [Example 357, 2-[1-[4-[6-(cyclopentylamino)pyrazin-2-yl]-2,6-difluoro-phenyl]-4-piperidyl]acetic acid], the concentration giving a half-maximal response (EC50) fell in the range of 200 to 2000 nM.

As to `O=C(O)CC1CCN(c2c(F)cc(-c3cccc(NC4CCCC4)n3)cc2F)CC1` [Example 358, 2-[1-[4-[6-(cyclopentylamino)-2-pyridyl]-2,6-difluoro-phenyl]-4-piperidyl]acetic acid], the EC50 lay within 200 to 2000 nM.

Turning to `CC(C)CNc1ccnc(-c2cc(F)c(N3CCC(CC(=O)O)CC3)c(F)c2)n1` [Example 360, 2-[1-[2,6-difluoro-4-[4-(isobutylamino)pyrimidin-2-yl]phenyl]-4-piperidyl]acetic acid], the EC50 lay within 200 to 2000 nM.

On to `Cc1ncc(-c2cc(F)c(N3CCC(CC(=O)O)CC3)c(F)c2)nc1OC1CCC1` [Example 361, 2-[1-[4-[6-(cyclobutoxy)-5-methyl-pyrazin-2-yl]-2,6-difluoro-phenyl]-4-piperidyl]acetic acid], for which the half-maximal effective concentration (EC50) is 200 to 2000 nM.

For the compound `O=C(O)CC1CCN(c2c(F)cc(-c3cncc(C4CCCC4)n3)cc2F)CC1` [Example 363, 2-[1-[4-(6-cyclopentylpyrazin-2-yl)-2,6-difluoro-phenyl]-4-piperidyl]acetic acid], the EC50 is under 200 nM.

In the case of `CC(C)Cc1cncc(-c2cc(F)c(N3CCC(CC(=O)O)CC3)c(F)c2)n1` [Example 364, 2-[1-[2,6-difluoro-4-(6-isobutylpyrazin-2-yl)phenyl]-4-piperidyl]acetic acid], the EC50 lay in the range of 200 to 2000 nM.

`CC(C)Cc1ccnc(-c2cc(F)c(N3CCC(CC(=O)O)CC3)c(F)c2)n1` [Example 365, 2-[1-[2,6-difluoro-4-(4-isobutylpyrimidin-2-yl)phenyl]-4-piperidyl]acetic acid]: the EC50 fell in the range of 200 to 2000 nM.

In the case of `Cc1nsc(OC2CCC2)c1-c1cc(F)c(N2CCC(CC(=O)O)CC2)c(F)c1` [Example 366, 2-[1-[4-[5-(cyclobutoxy)-3-methyl-isothiazol-4-yl]-2,6-difluoro-phenyl]-4-piperidyl]acetic acid], the EC50 was in the range of 200 to 2000 nM.

For the compound `CCOc1csc(-c2cc(F)c(N3CCC(CC(=O)O)CC3)c(F)c2)n1` [Example 367, {1-[4-(4-ethoxy-thiazol-2-yl)-2,6-difluoro-phenyl]-piperidin-4-yl}acetic acid], the EC50 was in the range of 200 to 2000 nM.

For `CCOc1nc(-c2cc(F)c(N3CCC(CC(=O)O)CC3)c(F)c2)sc1C` [Example 368, {1-[4-(4-ethoxy-5-methyl-thiazol-2-yl)-2,6-difluoro-phenyl]-piperidin-4-yl}acetic acid], the EC50 was in the range of 200 to 2000 nM.

For `CCCCc1cncc(-c2cc(F)c(N3CCC(CC(=O)O)CC3)c(F)c2)n1` [Example 369, 2-[1-[4-(6-butylpyrazin-2-yl)-2,6-difluoro-phenyl]-4-piperidyl]acetic acid], the EC50 is under 200 nM.

Consider `CC(C)CCc1cncc(-c2cc(F)c(N3CCC(CC(=O)O)CC3)c(F)c2)n1` [Example 370, 2-[1-[2,6-difluoro-4-(6-isopentylpyrazin-2-yl)phenyl]-4-piperidyl]acetic acid], for which the concentration for a half-maximal effect (EC50) was in the range of 200 to 2000 nM.

As for `O=C(O)CC1CCN(c2c(F)cc(-c3ncc(F)c(OC4CCC4)n3)cc2F)CC1` [Example 371, 2-[1-[4-[4-(cyclobutoxy)-5-fluoro-pyrimidin-2-yl]-2,6-difluoro-phenyl]-4-piperidyl]acetic acid], the EC50 is under 200 nM.

On to `O=C(O)CC1CCN(c2c(F)cc(-c3ncc(F)c(OCC4CC4)n3)cc2F)CC1` [Example 372, 2-[1-[4-[4-(cyclopropylmethoxy)-5-fluoro-pyrimidin-2-yl]-2,6-difluoro-phenyl]-4-piperidyl]acetic acid], for which the EC50 was under 200 nM.

`O=C(O)CC1CCN(c2c(F)cc(-c3cccc(C4CCC4)n3)cc2F)CC1` [Example 373, 2-[1-[4-(6-cyclobutyl-2-pyridyl)-2,6-difluoro-phenyl]-4-piperidyl]acetic acid]: the EC50 was in the range of 200 to 2000 nM.

As to `O=C(O)CC1CCN(c2c(F)cc(-c3cncc(C4CCC4)n3)cc2F)CC1` [Example 374, 2-[1-[4-(6-cyclobutylpyrazin-2-yl)-2,6-difluoro-phenyl]-4-piperidyl]acetic acid], the EC50 is under 200 nM.

Consider `O=C(O)CC1CCN(c2c(F)cc(-c3cccc(CC4CCC4)n3)cc2F)CC1` [Example 375, 2-[1-[4-[6-(cyclobutylmethyl)-2-pyridyl]-2,6-difluoro-phenyl]-4-piperidyl]acetic acid], for which the EC50 lay within 200 to 2000 nM.

Regarding `O=C(O)CC1CCN(c2c(F)cc(-c3cccc(CC4CCCC4)n3)cc2F)CC1` [Example 376, 2-[1-[4-[6-(cyclopentylmethyl)-2-pyridyl]-2,6-difluoro-phenyl]-4-piperidyl]acetic acid], the EC50 fell in the range of 200 to 2000 nM.

As for `O=C(O)CC1CCN(c2c(F)cc(-c3nc(OCC4CC4)cs3)cc2F)CC1` [Example 377, {1-[4-(4-cyclopropylmethoxy-thiazol-2-yl)-2,6-difluoro-phenyl]-piperidin-4-yl}acetic acid], the 50% effective concentration (EC50) is under 200 nM.

Consider `O=C(O)CC1CCN(c2c(F)cc(-c3nc(OC4CCC4)cs3)cc2F)CC1` [Example 379, {1-[4-(4-cyclobutoxy-thiazol-2-yl)-2,6-difluoro-phenyl]-piperidin-4-yl}acetic acid], for which the concentration for a half-maximal effect (EC50) was under 200 nM.

Regarding `CCCCOc1csc(-c2cc(F)c(N3CCC(CC(=O)O)CC3)c(F)c2)n1` [Example 380, {1-[4-(4-butoxy-thiazol-2-yl)-2,6-difluoro-phenyl]-piperidin-4-yl}acetic acid], the EC50 was in the range of 200 to 2000 nM.

For the compound `O=C(O)CC1CCN(c2c(F)cc(-c3ncnc4c3CCC4)cc2F)CC1` [Example 382, 2-[1-[4-(6,7-dihydro-5H-cyclopenta[d]pyrimidin-4-yl)-2,6-difluoro-phenyl]-4-piperidyl]acetic acid], the EC50 is over 20000 nM.

As to `Cc1nc(-c2cc(F)c(N3CCC(CC(=O)O)CC3)c(F)c2)nc(OC2CCC2)c1C` [Example 384, 2-[1-[4-[4-(cyclobutoxy)-5,6-dimethyl-pyrimidin-2-yl]-2,6-difluoro-phenyl]-4-piperidyl]acetic acid], the EC50 lay within 2000 to 20000 nM.

Consider `O=C(O)CCCOc1c(F)cc(-c2cccc(OC3CCC3)n2)cc1Cl` [Example 385, 4-[2-chloro-4-[6-(cyclobutoxy)-2-pyridyl]-6-fluoro-phenoxy]butanoic acid], for which the EC50 was under 200 nM.

For the compound `O=C(O)CCCOc1c(Cl)cc(-c2cccc(OC3CCC3)n2)cc1Cl` [Example 386, 4-[2,6-dichloro-4-[6-(cyclobutoxy)-2-pyridyl]phenoxy]butanoic acid], the EC50 was under 200 nM.

Take `O=C(O)CCCOc1c(F)cc(-c2occc2COCC2CC2)cc1F` [Example 387, 4-[4-[3-(cyclopropylmethoxymethyl)-2-furyl]-2,6-difluoro-phenoxy]butanoic acid]: the EC50 is under 200 nM.

`O=C(O)CCCOc1c(F)cc(-c2cccc(COCC3CC3)n2)cc1F` [Example 388, 4-[4-[6-(cyclopropylmethoxymethyl)-2-pyridyl]-2,6-difluoro-phenoxy]butanoic acid]: the EC50 fell in the range of 200 to 2000 nM.

Take `O=C(O)CCCOc1c(F)cc(-c2cc(F)cc(OC3CCC3)c2)cc1Cl` [Example 389, 4-[2-chloro-4-[3-(cyclobutoxy)-5-fluoro-phenyl]-6-fluoro-phenoxy]butanoic acid]: the EC50 is under 200 nM.

As usually defined, the EC50 is the concentration giving half of the maximal effect.
